Measured values from US9856279B2 (AGIOS PHARMACEUTICALS, INC, priority 2011, dated 2018).

These molecules were tested against IDH1 R132H (Homo sapiens, UniProt O75874, R132H) (assay: Assay for IDH1 R132H inhibitors (NADPH/aKG, resazurin detection)). Conditions: Table 3; enzyme assay, 50 minutes at room temperature; read-out: IC50 (IDH1 R132H Inhibition).
IDH1 R132H, sequence (O75874 whole entry R132H): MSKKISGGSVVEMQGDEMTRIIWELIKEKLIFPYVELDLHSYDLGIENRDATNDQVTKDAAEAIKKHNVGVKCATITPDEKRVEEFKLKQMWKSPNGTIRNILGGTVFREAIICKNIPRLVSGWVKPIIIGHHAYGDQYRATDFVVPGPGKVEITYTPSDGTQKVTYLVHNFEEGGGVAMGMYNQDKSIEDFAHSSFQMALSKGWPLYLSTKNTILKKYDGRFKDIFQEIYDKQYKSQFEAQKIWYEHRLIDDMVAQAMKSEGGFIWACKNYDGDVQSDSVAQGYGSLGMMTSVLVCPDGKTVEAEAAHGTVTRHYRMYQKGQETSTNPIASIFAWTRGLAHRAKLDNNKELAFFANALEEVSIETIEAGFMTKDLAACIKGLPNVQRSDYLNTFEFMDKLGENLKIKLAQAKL
Assay type: biochemical
Procedure: Assays were conducted in a volume of 76 μl assay buffer (150 mM NaCl, 10 mM MgCl2, 20 mM Tris pH 7.5, 0.03% bovine serum albumin) as follows in a standard 384-well plate: To 25 ul of substrate mix (8 uM NADPH, 2 mM aKG), 1 μl of test compound was added in DMSO. The plate was centrifuged briefly, and then 25 μl of enzyme mix was added (0.2 μg/ml IDH1 R132H) followed by a brief centrifugation and shake at 100 RPM. The reaction was incubated for 50 minutes at room temperature, then 25 μl of detection mix (30 μM resazurin, […]) was added and the mixture further incubated for 5 minutes at room temperature. The conversion of resazurin to resorufin was detected by fluorescent spectroscopy at Ex544 Em590 c/o 590.
With `CC[C@@H]1CN(c2nc(C(C)C)c(-c3ccccc3)cc2C#N)CCN1C(=O)Cc1cccs1` [Compound 174, (R)-2-(3-ethyl-4-(2-(thiophen-2-yl)acetyl)piperazin-1-yl)-6-isopropyl-5-phenylnicotinonitrile] the IC50 was 1000 to 5000 nM. In the case of `COc1ccccc1-c1cc(C#N)c(N2CCN(C(=O)c3ccoc3)[C@H](C)C2)nc1C(C)C` [Compound 175, (R)-2-(4-(furan-3-carbonyl)-3-methylpiperazin-1-yl)-6-isopropyl-5-(2-methoxyphenyl)nicotinonitrile], the IC50 is reported as 1000 to 5000 nM. With `COc1ccccc1-c1cc(C#N)c(N2CCN(C(=O)c3ccco3)[C@H](C)C2)nc1C(C)C` [Compound 176, (R)-2-(4-(furan-2-carbonyl)-3-methylpiperazin-1-yl)-6-isopropyl-5-(2-methoxyphenyl)nicotinonitrile] the IC50 was 1000 to 5000 nM. `COc1ccccc1-c1cc(C#N)c(N2CCN(C(=O)Cc3cccs3)[C@H](C)C2)nc1C(C)C` [Compound 177, (R)-6-isopropyl-5-(2-methoxyphenyl)-2-(3-methyl-4-(2-(thiophen-2-yl)acetyl)piperazin-1-yl)nicotinonitril-e] gave an IC50 of 1000 to 5000 nM. Work on `COc1ccccc1-c1cc(C#N)c(N2CCN(C(=O)c3ccoc3C)[C@H](C)C2)nc1C(C)C` [Compound 178, (R)-6-isopropyl-5-(2-methoxyphenyl)-2-(3-methyl-4-(2-methylfuran-3-carbonyl)piperazin-1-yl)nicotino-nitrile] yielded an IC50 of 1000 to 5000 nM. Work on `Cc1ccc(-c2cc(C#N)c(N3CCN(C(=O)c4ccoc4)[C@H](C)C3)nc2C(C)C)cc1` [Compound 179, (R)-2-(4-(furan-3-carbonyl)-3-methylpiperazin-1-yl)-6-isopropyl-5-p-tolylnicotinonitrile] yielded an IC50 of 1000 to 5000 nM. `Cc1ccc(-c2cc(C#N)c(N3CCN(C(=O)c4ccco4)[C@H](C)C3)nc2C(C)C)cc1` [Compound 180, (R)-2-(4-(furan-2-carbonyl)-3-methylpiperazin-1-yl)-6-isopropyl-5-p-tolylnicotinonitrile] showed an IC50 of 1000 to 5000 nM. `Cc1ccc(-c2cc(C#N)c(N3CCN(C(=O)Cc4cccs4)[C@H](C)C3)nc2C(C)C)cc1` [Compound 181, (R)-6-isopropyl-2-(3-methyl-4-(2-(thiophen-2-yl)acetyl)piperazin-1-yl)-5-p-tolylnicotinonitrile] gave an IC50 of 1000 to 5000 nM. `Cc1ccc(-c2cc(C#N)c(N3CCN(C(=O)c4ccoc4C)[C@H](C)C3)nc2C(C)C)cc1` [Compound 182, (R)-6-isopropyl-2-(3-methyl-4-(2-methylfuran-3-carbonyl)piperazin-1-yl)-5-p-tolylnicotinonitrile] gave an IC50 of at most 1000 nM. `COCCC(=O)N1CCN(c2nc(C(C)C)c(-c3ccccc3OC)cc2C#N)C[C@H]1C` [Compound 183, (R)-6-isopropyl-5-(2-methoxyphenyl)-2-(4-(3-methoxypropanoyl)-3-methylpiperazin-1-yl)nicotinonitrile] was tested, and the IC50 was 1000 to 5000 nM. Work on `CCOc1ccccc1-c1cc(C#N)c(N2CCN(C(=O)c3ccco3)C[C@@H]2C)nc1C(C)C` [Compound 184, (S)-5-(2-ethoxyphenyl)-2-(4-(furan-2-carbonyl)-2-methylpiperazin-1-yl)-6-isopropylnicotinonitrile] yielded an IC50 of 1000 to 5000 nM. `CC(C)c1nc(N2CCN(C(=O)c3ccco3)[C@H](C)C2)c(C#N)cc1-c1ccc(C(F)(F)F)cc1` [Compound 185, (R)-2-(4-(furan-2-carbonyl)-3-methylpiperazin-1-yl)-6-isopropyl-5-(4-(trifluoromethyl)phenyl) nicotinonitrile] gave an IC50 of 1000 to 5000 nM. `CC(C)c1nc(N2CCN(C(=O)c3ccoc3)[C@H](C)C2)c(C#N)cc1-c1ccc(C(F)(F)F)cc1` [Compound 187, (R)-2-(4-(furan-3-carbonyl)-3-methylpiperazin-1-yl)-6-isopropyl-5-(4-(trifluoromethyl)phenyl)nicotinonitrile] was tested, and the IC50 was at most 1000 nM. For `CC(C)c1nc(N2CCN(C(=O)Cc3cccs3)[C@H](C)C2)c(C#N)cc1-c1ccc(C(F)(F)F)cc1` [Compound 188, (R)-6-isopropyl-2-(3-methyl-4-(2-(thiophen-2-yl)acetyl)piperazin-1-yl)-5-(4-(trifluoromethyl)phenyl)nicotinonitrile], the IC50 was 1000 to 5000 nM. In the case of `COCCC(=O)N1CCN(c2nc(C(C)C)c(-c3ccc(C(F)(F)F)cc3)cc2C#N)C[C@H]1C` [Compound 189, (R)-6-isopropyl-2-(4-(3-methoxypropanoyl)-3-methylpiperazin-1-yl)-5-(4-(trifluoromethyl)phenyl)-nicotinonitrile], the IC50 is reported as 1000 to 5000 nM. Work on `Cc1cccc(-c2cc(C#N)c(N3CCN(C(=O)c4ccco4)[C@H](C)C3)nc2C(C)C)c1` [Compound 190] yielded an IC50 of 5000 to 15000 nM. For `Cc1cccc(-c2cc(C#N)c(N3CCN(C(=O)c4ccoc4)[C@H](C)C3)nc2C(C)C)c1` [Compound 191], the IC50 was at most 1000 nM. `Cc1cccc(-c2cc(C#N)c(N3CCN(C(=O)Cc4cccs4)[C@H](C)C3)nc2C(C)C)c1` [Compound 192, (R)-6-isopropyl-2-(3-methyl-4-(2-(thiophen-2-yl)acetyl)piperazin-1-yl)-5-m-tolylnicotinonitrile] showed an IC50 of 1000 to 5000 nM. Molecule `COCCC(=O)N1CCN(c2nc(C(C)C)c(-c3cccc(C)c3)cc2C#N)C[C@H]1C` [Compound 193, (R)-6-isopropyl-2-(4-(3-methoxypropanoyl)-3-methylpiperazin-1-yl)-5-m-tolylnicotinonitrile] has an IC50 of 1000 to 5000 nM. `CC(C)c1nc(N2CCN(C(=O)c3ccoc3)[C@H](C(C)C)C2)c(C#N)cc1-c1ccc(C(F)(F)F)cc1` [Compound 195] showed an IC50 of 1000 to 5000 nM. `CC(C)c1nc(N2CCN(C(=O)Cc3cccs3)[C@H](C(C)C)C2)c(C#N)cc1-c1ccc(C(F)(F)F)cc1` [Compound 196, (R)-6-isopropyl-2-(3-isopropyl-4-(2-(thiophen-2-yl)acetyl)piperazin-1-yl)-5-(4-(trifluoromethyl)phenyl)-nicotinonitrile] gave an IC50 of 1000 to 5000 nM. Work on `COCCC(=O)N1CCN(c2nc(C(C)C)c(-c3ccc(C(F)(F)F)cc3)cc2C#N)C[C@H]1C(C)C` [Compound 197, (R)-6-isopropyl-2-(3-isopropyl-4-(3-methoxypropanoyl)piperazin-1-yl)-5-(4-(trifluoromethyl)phenyl)nicotinonitrile] yielded an IC50 of 1000 to 5000 nM. Molecule `COCCC(=O)N1CCN(c2nc(C(C)C)c(-c3ccc(C)cc3)cc2C#N)C[C@H]1C` [Compound 198, (R)-6-isopropyl-2-(4-(3-methoxypropanoyl)-3-methylpiperazin-1-yl)-5-p-tolylnicotinonitrile] has an IC50 of 1000 to 5000 nM. `Cc1occc1C(=O)N1CCN(c2nc(C(C)C)c(-c3ccc(F)cc3)cc2C#N)C[C@H]1C` [Compound 199, (R)-5-(4-fluorophenyl)-6-isopropyl-2-(3-methyl-4-(2-methylfuran-3-carbonyl)piperazin-1-yl)nicotinonitrile] showed an IC50 of 1000 to 5000 nM. For `Cc1cccc(-c2cc(C#N)c(N3CCN(C(=O)c4ccoc4C)[C@H](C)C3)nc2C(C)C)c1` [Compound 200, (R)-6-isopropyl-2-(3-methyl-4-(2-methylfuran-3-carbonyl)piperazin-1-yl)-5-m-tolylnicotinonitrile], the IC50 was 1000 to 5000 nM. Work on `Cc1occc1C(=O)N1CCN(c2nc(C(C)C)c(-c3ccc(C(F)(F)F)cc3)cc2C#N)C[C@H]1C` [Compound 201, (R)-6-isopropyl-2-(3-methyl-4-(2-methylfuran-3-carbonyl)piperazin-1-yl)-5-(4-(trifluoromethyl)phenyl)-nicotinonitrile] yielded an IC50 of 1000 to 5000 nM. `Cc1occc1C(=O)N1CCN(c2nc(C(C)C)c(-c3ccc(C(C)C)cc3)cc2C#N)C[C@H]1C` [Compound 202, (R)-6-isopropyl-5-(4-isopropylphenyl)-2-(3-methyl-4-(2-methylfuran-3-carbonyl)piperazin-1-yl)nicotinonitrile] gave an IC50 of 1000 to 5000 nM. `Cc1occc1C(=O)N1CCN(c2nc(C(C)C)c(-c3ccoc3)cc2C#N)C[C@H]1C` [Compound 203, (R)-5-(furan-3-yl)-6-isopropyl-2-(3-methyl-4-(2-methylfuran-3-carbonyl)piperazin-1-yl)nicotinonitrile] was tested, and the IC50 was 1000 to 5000 nM. Molecule `CC(C)c1nc(N2CCN(C(=O)c3ccoc3)[C@H](C)C2)c(C#N)cc1-c1ccoc1` [Compound 204, (R)-2-(4-(furan-3-carbonyl)-3-methylpiperazin-1-yl)-5-(furan-3-yl)-6-isopropylnicotinonitrile] has an IC50 of 1000 to 5000 nM. `COCCC(=O)N1CCN(c2nc(C(C)C)c(-c3ccoc3)cc2C#N)C[C@H]1C` [Compound 205, (R)-5-(furan-3-yl)-6-isopropyl-2-(4-(3-methoxypropanoyl)-3-methylpiperazin-1-yl)nicotinonitrile] was tested, and the IC50 was 1000 to 5000 nM. With `CC(C)c1ccc(-c2cc(C#N)c(N3CCN(C(=O)c4ccoc4)[C@H](C)C3)nc2C(C)C)cc1` [Compound 206, (R)-2-(4-(furan-3-carbonyl)-3-methylpiperazin-1-yl)-6-isopropyl-5-(4-isopropylphenyl)nicotinonitrile] the IC50 was 1000 to 5000 nM. `COCCC(=O)N1CCN(c2nc(C(C)C)c(-c3ccc(F)cc3)cc2C#N)C[C@H]1C` [Compound 207, (R)-5-(4-fluorophenyl)-6-isopropyl-2-(4-(3-methoxypropanoyl)-3-methylpiperazin-1-yl)nicotinonitrile] showed an IC50 of at most 1000 nM. Molecule `COCCC(=O)N1CCN(c2nc(C(C)C)c(-c3ccc(C(C)C)cc3)cc2C#N)C[C@H]1C` [Compound 208, (R)-6-isopropyl-5-(4-isopropylphenyl)-2-(4-(3-methoxypropanoyl)-3-methylpiperazin-1-yl)nicotinonitrile] has an IC50 of 1000 to 5000 nM. In the case of `COCCC(=O)N1CCN(c2nc(C(C)C)c(-c3cc4ccccc4o3)cc2C#N)C[C@H]1C` [Compound 209, (R)-5-(benzofuran-2-yl)-6-isopropyl-2-(4-(3-methoxypropanoyl)-3-methylpiperazin-1-yl)nicotinonitrile], the IC50 is reported as 1000 to 5000 nM.
